This note sets out measurements from patent US8609836B2, “4-aryl-2-anilino-pyrimidines” (Janssen Pharmaceutica NV, priority 2008, dated 2013).

Bounds are passed on as bounds.

Test [1] addresses PLK1 T210D (h) (Homo sapiens, UniProt P53350, T210D). The experiment in a line: PLK1 human kinase inhibition, SPA. The format is biochemical. As to conditions: read-out: PLK1 pIC50 (converted). How it is done:
(§1) The in vitro inhibition of a panel of kinases was assessed using either the scintillation proximity assay (SPA) as described by Cook, N. D. et al., Advances in Experimental Medicine and Biology (1991), 36; p. 525-528.
(§2) In the SPA technology the activity of the kinase of interest is measured using an appropriate biotinylated substrate that is incubated with the aforementioned kinase protein in the presence of (^33P) radiolabeled ATP. (^33P) Phosphorylation of the substrate is subsequently measured through binding of the phosphorylated substrate to streptavidine coated beads that are based on the scintillant poly(vinyl toluene) (PVT-Beads). The scintillation intensity is detected by imaging on Leadseeker.
(§3) All kinases are pre-diluted to a 10× working concentration prior to addition into the assay. The composition of the dilution buffer for each kinase is detailed below.
In a final reaction volume of 30 μl, PLK1 T210D (h) (0.125 ng/ml) is incubated with 50 mM Hepes pH 8.0, 2 mM MnCl2, 1 mM DTT, 2 μM of peptide Biotin-Tds linker-[…], 0.1 μM ATP and 2 nM [γ-^33P-ATP] (6.0 μCi/ml). After incubation of 40 minutes at room temperature, the reaction is stopped by addition of 40 μL of stop solution containing 8.7 mM EDTA, BSA 0.17%, 0.17% Triton X-100, 25 mg/ml SPA beads (GE-healthcare). The plate is centrifuged and read for Scintillation imaging on Leadseeker.

The test system of test [2] is A2780. The experiment in a line: Cellular proliferation assay (Alamar blue), A2780. The format is cell-based. As to conditions: Homo sapiens, 10% FCS, 72 hours with compound, Alamar blue 24 h, read-out: A2780 (cellular proliferation assay, Table 4) (converted). How it is done:
(§4) […] functional properties of these compounds were tested in cellular proliferation assays on a panel of different cell lines in the presence of 10% FCS serum (37° C. and 5% (v/v) CO2). In a first step these cells were seeded and incubated for 24 hours in the absence of compound. In the second step the cells were incubated for 72 hours with the compounds to be tested for 72 hours. The viable cell number was finally assessed in a standard Alamar blue cell viability assay.
(§5) The viable cell number was assessed by incubation for either 4 h (HCT-116, H1299) 6 h (U87-MG) or 24 h (A2780, MDA-MB-231) with Alamar blue (Resazurin 9 μg/ml, K-Ferrocyanide 90 μM, K-Ferricyanide 90 μM) and the converted fluorescent product was quantified on a fluorescent plate reader (544 nm/590 nm). Effect of the compounds is calculated as of on control cells.
A general note: The colour change of resazurin is a common sign of viable cells or microbes.

For test [3], the target named is PLK4 (h) (Homo sapiens, UniProt O00444). As to the kind of experiment: PLK-4 human kinase inhibition, scintillation proximity assay (SPA). The format is biochemical. As to conditions: read-out: PLK4 pIC50 (converted). How it is done: as §2, §3
(6.0 μCi/ml). After incubation of 60 minutes at room temperature, the reaction is stopped by addition of 40 μL of stop solution containing 8.7 mM EDTA, BSA 0.17%, 0.17% Triton X-100, 1.7 mg/ml SPA beads (GE-healthcare). The plate is centrifuged and read for Scintillation imaging on Leadseeker.

Test [4] deals with H1299. The experiment in a line: Cellular proliferation assay (Alamar blue), H1299. The format is cell-based. As to conditions: Homo sapiens, NCI-H1299; 10% FCS; 72 hours with compound; Alamar blue 4 h. How it is done: as §4, §5
The subject of test [5] is HCT-116. The experiment in a line: Cellular proliferation assay (Alamar blue), HCT-116. The format is cell-based. As to conditions: Homo sapiens, 10% FCS, 72 hours with compound, Alamar blue 4 h. Here is the method: as §4, §5
In test [6] the target is PLK3 (h) (Homo sapiens, UniProt Q9H4B4). The experiment in a line: PLK3 human kinase inhibition, SPA. The format is biochemical. As to conditions: read-out: PLK3 pIC50 (converted). Here is the method:
as §1, §2, §3
In a final reaction volume of 30 μl, PLK3 (h) (30 μg/ml) is incubated with 50 mM Hepes pH 8.0, 2 mM MnCl2, 1 mM DTT, 2 μM of peptide Biotin-Tds linker-[…], 0.1 μM ATP and 2 nM [γ-^33P-ATP] (6.0 μCi/ml). After incubation of 20 minutes at room temperature, the reaction is stopped by addition of 40 μL of stop solution containing 8.7 mM EDTA, BSA 0.17%, 0.17% Triton X-100, 25 mg/ml SPA beads (GE-healthcare). The plate is centrifuged and read for Scintillation imaging on Leadseeker.

Test [7] concerns MDA-MB-231. The experiment in a line: Cellular proliferation assay (Alamar blue), MDA-MB-231. The format is cell-based. As to conditions: Homo sapiens, 10% FCS, 72 hours with compound, Alamar blue 24 h, read-out: MDA/MB231 (cellular proliferation assay, Table 4) (converted). Here is the method:
as §4, §5

In test [8] the target is CDK1/CyclinB (h) (Homo sapiens, UniProt P06493). The experiment in a line: CDK1/CyclinB human kinase inhibition, Invitrogen's FRET assay (Z'lyte). The format is biochemical. As to conditions: read-out: CDK1 pIC50 (converted). How it is done:
as §1, §3
In a final reaction volume of 10 μl, CDK1/CyclinB (h) (0.2 μg/ml) is incubated with 50 mM Hepes pH 7.5, 10 mM MgCl2, 1 mM EGTA, 0.01% Brij-35, 2 μM Z'lyte Ser/Thr peptide 12 and 10 μM ATP (Invitrogen's FRET assay). After incubation of 60 minutes at room temperature, the reaction is stopped by addition of 5 μL development reagent containing protease mix. After 60 minutes room temperature the development reaction is stopped by adding 5 μl stop solution. The plate is then read in fluorescence plate reader with excitation: 390 nm and dual emission: 460 and 538 nm. Emission ratio is determined to the formula=Emission signal intensity at 460 nm/Emission signal intensity at 538 nm.

Test [9] deals with GSK3β (h) (Homo sapiens, UniProt P49841). As to the kind of experiment: GSK-3β human kinase inhibition, SPA. The format is biochemical. As to conditions: read-out: GSK3b pIC50 (converted). Here is the method:
as §1, §2, §3
In a final reaction volume of 30 μl, GSK3β (h) (1 μg/ml) is incubated with 25 mM Tris pH 7.4, 10 mM MgCl2, 1 mM DTT, 1 μM peptide Biotin-[…]-OH, 1 μM ATP and 2 nM [γ-^33P-ATP] (6.0 μCi/ml). After incubation of 60 minutes at room temperature, the reaction is stopped by addition of 40 μL of stop solution containing 8.7 mM EDTA, BSA 0.17%, 0.17% Triton X-100, 6.25 mg/ml SPA beads (GE-healthcare). The plate is centrifuged and read for Scintillation imaging on Leadseeker.

The target in test [10] is AuroraB (h) (Homo sapiens, UniProt Q96GD4). The experiment in a line: Aurora-B human kinase inhibition, SPA. As to conditions: read-out: AuroraB pIC50 (converted). The format is biochemical. How it is done: as §1, §2, §3
In a final reaction volume of 30 μl, AuroraB (h) (0.5 μg/ml) is incubated with 60 mM Hepes pH 7.5, 3 mM MgCl2, 3 mM MnCl2, 3 μM Na3VO4, 0.05 mg/ml PEG, 2 mM DTT, 3 μM Biotin-[…]-OH, 0.5 μM ATP and 2.2 nM [γ-^33P-ATP] (6.8 μCi/ml). After incubation of 60 minutes at room temperature, the reaction is stopped by addition of 40 μL of stop solution containing 8.7 mM EDTA, BSA 0.17%, 0.17% Triton X-100, 5 mg/ml SPA beads (GE-healthcare). The plate is centrifuged and read for Scintillation imaging on Leadseeker.

The target of test [11] is PLK2 (h) (Homo sapiens, UniProt Q9NYY3). As to the kind of experiment: PLK2 human kinase inhibition, SPA. The format is biochemical. As to conditions: read-out: PLK2 pIC50 (converted). How it is done:
as §1, §2, §3
In a final reaction volume of 30 μl, PLK2 (h) (30 μg/ml) is incubated with 50 mM Hepes pH 8.0, 2 mM MnCl2, 1 mM DTT, 2 μM of peptide Biotin-Tds linker-[…], 0.1 μM ATP and 2 nM [γ-^33P-ATP] (6.0 μCi/ml). After incubation of 20 minutes at room temperature, the reaction is stopped by addition of 40 μL of stop solution containing 8.7 mM EDTA, BSA 0.17%, 0.17% Triton X-100, 25 mg/ml SPA beads (GE-healthcare). The plate is centrifuged and read for Scintillation imaging on Leadseeker.

Test [12] deals with U87-MG. As to the kind of experiment: Cellular proliferation assay (Alamar blue), U87-MG. As to conditions: Homo sapiens, U-87 MG; 10% FCS; 72 hours with compound; Alamar blue 6 h; read-out: U87-MG (cellular proliferation assay, Table 4) (converted). The format is cell-based. How it is done:
as §4, §5

GSK3β (h), sequence (P49841 whole entry): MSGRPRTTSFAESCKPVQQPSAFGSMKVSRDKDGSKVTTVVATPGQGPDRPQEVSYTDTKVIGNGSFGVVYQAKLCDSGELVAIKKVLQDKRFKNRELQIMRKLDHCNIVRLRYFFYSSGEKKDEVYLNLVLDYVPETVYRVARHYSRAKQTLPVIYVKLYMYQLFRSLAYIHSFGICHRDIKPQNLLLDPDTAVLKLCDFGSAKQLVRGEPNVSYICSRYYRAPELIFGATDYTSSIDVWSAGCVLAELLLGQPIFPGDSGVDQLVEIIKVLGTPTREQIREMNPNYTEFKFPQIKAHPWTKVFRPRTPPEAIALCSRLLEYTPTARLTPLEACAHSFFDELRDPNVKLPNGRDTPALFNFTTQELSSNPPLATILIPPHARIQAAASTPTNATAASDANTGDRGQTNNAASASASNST
AuroraB (h), sequence (Q96GD4 whole entry): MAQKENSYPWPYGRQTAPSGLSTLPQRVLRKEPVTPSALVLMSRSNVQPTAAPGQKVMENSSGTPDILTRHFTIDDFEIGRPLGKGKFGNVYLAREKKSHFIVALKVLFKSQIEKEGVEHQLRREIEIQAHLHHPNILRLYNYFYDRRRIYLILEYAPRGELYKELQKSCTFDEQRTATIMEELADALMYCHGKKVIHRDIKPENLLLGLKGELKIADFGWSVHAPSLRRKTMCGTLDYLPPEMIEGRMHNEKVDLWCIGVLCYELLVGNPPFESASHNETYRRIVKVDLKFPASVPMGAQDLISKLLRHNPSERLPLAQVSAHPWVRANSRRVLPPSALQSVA
PLK2 (h), sequence (Q9NYY3 whole entry): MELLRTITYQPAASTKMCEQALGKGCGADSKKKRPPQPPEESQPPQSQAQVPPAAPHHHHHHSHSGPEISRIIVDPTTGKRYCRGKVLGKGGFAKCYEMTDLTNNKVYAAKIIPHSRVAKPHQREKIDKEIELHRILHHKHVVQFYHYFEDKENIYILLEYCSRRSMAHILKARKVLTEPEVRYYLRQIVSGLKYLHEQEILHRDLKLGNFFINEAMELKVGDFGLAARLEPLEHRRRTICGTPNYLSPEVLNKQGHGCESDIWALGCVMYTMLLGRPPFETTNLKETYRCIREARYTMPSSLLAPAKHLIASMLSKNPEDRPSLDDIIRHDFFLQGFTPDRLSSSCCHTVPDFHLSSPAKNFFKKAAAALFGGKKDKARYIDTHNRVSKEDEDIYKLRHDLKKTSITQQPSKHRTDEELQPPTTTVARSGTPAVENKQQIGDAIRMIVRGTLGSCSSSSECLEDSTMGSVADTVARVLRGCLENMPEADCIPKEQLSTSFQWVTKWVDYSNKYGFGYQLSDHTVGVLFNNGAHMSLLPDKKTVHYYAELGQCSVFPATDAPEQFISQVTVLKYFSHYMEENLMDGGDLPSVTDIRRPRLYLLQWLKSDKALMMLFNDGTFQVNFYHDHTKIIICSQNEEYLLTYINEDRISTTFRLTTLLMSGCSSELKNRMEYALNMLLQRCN
PLK3 (h), sequence (Q9H4B4 whole entry): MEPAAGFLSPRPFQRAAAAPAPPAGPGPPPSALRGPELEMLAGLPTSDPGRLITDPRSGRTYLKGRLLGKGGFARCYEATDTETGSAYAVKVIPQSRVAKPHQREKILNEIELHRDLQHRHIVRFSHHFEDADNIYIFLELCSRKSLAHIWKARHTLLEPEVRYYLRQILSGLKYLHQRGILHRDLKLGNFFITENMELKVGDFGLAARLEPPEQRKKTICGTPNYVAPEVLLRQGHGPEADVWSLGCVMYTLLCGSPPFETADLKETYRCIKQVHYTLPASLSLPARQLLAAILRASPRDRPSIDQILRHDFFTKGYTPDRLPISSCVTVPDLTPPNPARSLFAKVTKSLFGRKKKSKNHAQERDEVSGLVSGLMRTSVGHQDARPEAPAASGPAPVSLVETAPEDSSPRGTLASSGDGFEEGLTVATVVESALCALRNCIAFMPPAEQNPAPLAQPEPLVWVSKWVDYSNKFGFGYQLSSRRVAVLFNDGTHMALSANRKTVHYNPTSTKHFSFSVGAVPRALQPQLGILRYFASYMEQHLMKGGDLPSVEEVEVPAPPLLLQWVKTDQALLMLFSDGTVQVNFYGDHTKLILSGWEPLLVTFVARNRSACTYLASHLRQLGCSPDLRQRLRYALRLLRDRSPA
CDK1/CyclinB (h), sequence (P06493 whole entry): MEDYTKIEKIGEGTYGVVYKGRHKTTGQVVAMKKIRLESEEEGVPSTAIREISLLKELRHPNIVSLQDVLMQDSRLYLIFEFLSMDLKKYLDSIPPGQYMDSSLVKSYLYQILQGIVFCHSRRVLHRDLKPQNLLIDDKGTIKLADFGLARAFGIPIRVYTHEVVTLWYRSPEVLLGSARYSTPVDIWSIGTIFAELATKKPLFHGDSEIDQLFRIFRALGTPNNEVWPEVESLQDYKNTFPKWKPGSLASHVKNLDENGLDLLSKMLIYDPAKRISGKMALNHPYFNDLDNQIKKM
CDK1/CyclinB (h), sequence (P14635 whole entry partner): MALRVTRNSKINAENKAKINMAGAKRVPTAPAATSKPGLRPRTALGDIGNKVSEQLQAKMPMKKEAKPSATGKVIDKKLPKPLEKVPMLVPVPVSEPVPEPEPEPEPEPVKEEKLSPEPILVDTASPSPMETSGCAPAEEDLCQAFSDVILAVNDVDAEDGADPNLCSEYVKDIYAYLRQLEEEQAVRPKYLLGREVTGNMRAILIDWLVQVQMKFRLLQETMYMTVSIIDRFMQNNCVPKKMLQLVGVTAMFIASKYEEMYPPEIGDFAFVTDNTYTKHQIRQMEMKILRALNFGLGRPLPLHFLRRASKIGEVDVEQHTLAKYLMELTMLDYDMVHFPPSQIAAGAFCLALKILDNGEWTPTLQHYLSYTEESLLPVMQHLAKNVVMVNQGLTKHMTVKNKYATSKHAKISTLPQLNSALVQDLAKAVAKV
PLK4 (h), sequence (O00444 whole entry): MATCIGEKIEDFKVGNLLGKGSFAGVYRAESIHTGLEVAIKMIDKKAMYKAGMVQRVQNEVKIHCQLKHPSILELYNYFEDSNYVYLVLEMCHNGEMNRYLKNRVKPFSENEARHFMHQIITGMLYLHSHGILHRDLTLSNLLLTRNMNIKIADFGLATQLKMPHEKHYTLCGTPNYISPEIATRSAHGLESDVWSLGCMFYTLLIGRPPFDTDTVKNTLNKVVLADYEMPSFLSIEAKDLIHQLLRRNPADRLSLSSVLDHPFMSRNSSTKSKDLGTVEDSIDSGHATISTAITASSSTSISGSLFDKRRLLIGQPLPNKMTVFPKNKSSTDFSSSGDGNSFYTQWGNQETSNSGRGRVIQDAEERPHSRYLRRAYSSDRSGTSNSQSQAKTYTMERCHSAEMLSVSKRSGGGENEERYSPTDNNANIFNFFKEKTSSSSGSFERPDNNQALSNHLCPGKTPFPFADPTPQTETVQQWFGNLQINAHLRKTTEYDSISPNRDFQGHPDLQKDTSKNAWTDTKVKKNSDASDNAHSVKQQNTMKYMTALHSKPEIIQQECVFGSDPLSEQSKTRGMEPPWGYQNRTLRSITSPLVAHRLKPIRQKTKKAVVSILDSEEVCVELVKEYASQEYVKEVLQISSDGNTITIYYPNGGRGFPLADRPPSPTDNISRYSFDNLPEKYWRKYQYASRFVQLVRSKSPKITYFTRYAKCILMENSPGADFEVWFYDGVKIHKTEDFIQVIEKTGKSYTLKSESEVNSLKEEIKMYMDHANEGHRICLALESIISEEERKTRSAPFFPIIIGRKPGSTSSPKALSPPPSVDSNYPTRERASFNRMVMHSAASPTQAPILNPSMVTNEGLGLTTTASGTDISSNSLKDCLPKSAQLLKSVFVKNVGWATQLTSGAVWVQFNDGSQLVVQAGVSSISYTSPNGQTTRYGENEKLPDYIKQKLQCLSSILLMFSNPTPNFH
PLK1 T210D (h), sequence (P53350 whole entry T210D): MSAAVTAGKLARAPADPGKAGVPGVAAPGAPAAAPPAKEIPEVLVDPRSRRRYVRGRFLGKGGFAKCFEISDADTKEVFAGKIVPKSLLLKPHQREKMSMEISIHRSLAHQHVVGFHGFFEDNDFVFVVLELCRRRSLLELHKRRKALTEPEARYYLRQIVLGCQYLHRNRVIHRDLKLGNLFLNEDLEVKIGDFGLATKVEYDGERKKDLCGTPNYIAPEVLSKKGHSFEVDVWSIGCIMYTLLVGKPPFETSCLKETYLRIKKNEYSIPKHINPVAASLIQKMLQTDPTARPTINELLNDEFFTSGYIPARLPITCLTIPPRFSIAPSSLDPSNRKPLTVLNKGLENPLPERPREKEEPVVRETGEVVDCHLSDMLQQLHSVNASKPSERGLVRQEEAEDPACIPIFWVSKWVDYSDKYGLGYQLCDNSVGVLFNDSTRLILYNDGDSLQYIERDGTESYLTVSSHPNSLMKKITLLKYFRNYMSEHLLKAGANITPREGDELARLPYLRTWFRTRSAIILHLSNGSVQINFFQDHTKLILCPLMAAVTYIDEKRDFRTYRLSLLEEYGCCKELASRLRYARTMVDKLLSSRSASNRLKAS

For `CN1CCCNC(=O)CN2CCN(CC2)Cc2cc(cc(N3CCOCC3)c2)Nc2nccc(n2)-c2ccc(cc2)C1` [Compound 136], the IC50 in [1] is more than 10 µM; in [2] it was 2.34 µM; in test [3], 1.82 µM; in [4], 3.02 µM; in test [5], 0.355 µM; in test [6], more than 10 µM. Also, the IC50 in [7] is more than 10 µM; in [8], more than 10 µM; in [9], 6.76 µM; in test [10], more than 10 µM; in test [11], more than 10 µM; in test [12] it was 1.7 µM.

As for `O=C1NCCNCc2ccc(cc2)-c2ccnc(n2)Nc2ccc(N3CCOCC3)c(c2)CN2C[C@H](O)C[C@@H]12` [Compound 166], the IC50 was more than 10 µM in test [1]; more than 10 µM in test [2]; 3.55 µM in test [3]; more than 10 µM in test [5]; more than 10 µM in test [7]; more than 3.02 µM in test [12].

For the molecule `COc1ccc2cc1CN(C)CCCNC(=O)[C@H](CO)NCc1cc(Br)cc(c1)Nc1nccc-2n1` [Compound 112], the IC50 in test [1] was more than 10 µM; in [2], more than 10 µM; in test [3] it was 0.912 µM; in test [4] it was more than 10 µM; in test [5] it was more than 10 µM; in test [6], more than 10 µM. Also, the IC50 in test [7] was more than 10 µM; in test [8], more than 10 µM; in test [9], 3.89 µM; in test [10], 3.31 µM; in test [11], more than 10 µM; in [12], more than 10 µM.

As to `COc1cc2cc(c1OC)CNC(=O)[C@@H]1CCCN1Cc1cccc(c1)-c1ccnc(n1)N2` [Compound 150], the IC50 in test [1] was more than 10 µM; in [2], more than 10 µM; in test [3], 0.832 µM; in test [4], more than 10 µM; in test [5], 4.27 µM; in test [6] it was more than 10 µM. The IC50 was more than 10 µM in test [7]; 5.89 µM in test [8]; 0.1 µM in test [9]; more than 10 µM in [10]; more than 10 µM in test [11]; more than 10 µM in test [12].

As for `O=C1NCCCNCc2ccc(cc2)-c2ccnc(n2)Nc2ccc(N3CCOCC3)c(c2)CN2CCC1CC2` [Compound 69], the IC50 was more than 10 µM in [1]; more than 10 µM in test [2]; 1.58 µM in [3]; 2.63 µM in test [4]; more than 10 µM in [5]; more than 10 µM in [7]. In addition, in [12], the IC50 is 5.62 µM.

As to `COc1ccc2cc1CNCCCNC(=O)[C@@H]1C[C@@H](O)CN1Cc1cc(ccc1N1CCOCC1)Nc1nccc-2n1` [Compound 176], the IC50 in [1], in [2], in test [3], in test [4], in test [5] and in [7] was more than 10 µM each time. Besides, in [12], the IC50 was more than 10 µM.

On to `O=C1NCCCNCc2ccc(cc2)-c2ccnc(n2)Nc2ccc(N3CCOCC3)c(c2)CN2CCC[C@@H]12` [Compound 172], for which the IC50 is more than 10 µM in [1]; more than 10 µM in test [2]; 5.37 µM in test [3]; more than 10 µM in test [5]; more than 10 µM in test [7]; 4.79 µM in [12].

On to `COc1ccc2cc1CN1CCN(CC1)CC(=O)N(C)CCCN(C)c1ccc(cn1)-c1ccnc(n1)N2` [Compound 148], for which the IC50 in [2] was more than 10 µM; in test [4], more than 10 µM; in test [5], 0.316 µM; in test [7] it was more than 10 µM; in test [12], 4.68 µM.

On to `CN1CCCNC(=O)[C@H](CO)NCc2cc(Br)cc(c2)Nc2nccc(n2)-c2ccc(cc2)C1` [Compound 110], for which the IC50 in test [1] is more than 10 µM; in test [2], 5.5 µM; in [3], 0.759 µM; in test [5] it was more than 10 µM; in test [6], more than 10 µM; in test [8], more than 10 µM. Also, the IC50 in [9] is 6.46 µM; in test [10], 2.57 µM; in test [11], more than 10 µM; in test [12] it was 8.51 µM.

On to `CN1CCNC(=O)[C@H](CO)NCc2cc(Br)cc(c2)Nc2nccc(n2)-c2ccc(cc2)C1` [Compound 121], for which the IC50 is 10 µM in test [2]; 6.03 µM in test [4]; 1.91 µM in test [5]; 7.76 µM in test [7]; 7.24 µM in [12].
